Literature values as cited in patent US7879357B2 (priority 2003, dated 2011).

Conditions: skin of the retro-auricular region and the scrotum

In the case of `C[C@]12CCC(=O)C=C1CC[C@@H]1[C@@H]2[C@@H](O)C[C@@]2(C)[C@H]1CC[C@]2(O)C(=O)CO` [hydrocortisone], the “uptake rate through the skin compared to the lower arm” value is given as “up to 40 ×”.
